The values below come from PubChem BioAssay (NCI).

Holding throughout (test): growth of human tumour cells (NCI), 48 h
Assay [1] concerns CAKI-1 renal.
Assay [2] relates to KM12 colon.
Assay [3] relates to MALME-3M melanoma.
For assay [4], the system named is NCI-H23 lung.
The subject of assay [5] is OVCAR-3 ovarian.
The subject of assay [6] is OVCAR-4 ovarian.
Assay [7] relates to SF-268 CNS.
In assay [8] the test system is SF-539 CNS.
The subject of assay [9] is TK-10 renal.
The subject of assay [10] is UACC-62 melanoma.

“And” between values parts separate entries of the source, which are not always exact repeats. Equal entries are not always repeated.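 Test compounds were applied to cells in 96-well plates for 48 hours at 5 doses. Here, GI50 denotes the concentration required for 50% inhibition of growth. The concentration for full growth arrest is given as TGI.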

For `O=C(NCCSSCCNC(=O)/C(Cc1ccc(O)c(Br)c1)=N/O)/C(Cc1ccc(O)c(Br)c1)=N/O`, the TGI in [1] was 5.32 µM; in assay [2] it was 10.5 µM; in [3], 7.44 µM; in [4], 13.1 µM; in assay [5] it was 6.06 µM; in assay [6], 18.3 µM. For the same compound, the TGI in assay [7] is 9.75 µM; in assay [8], 8.84 µM; in [9] it was greater than 22.4 µM; in assay [10], 7.32 µM.
Consider `N#Cc1ccc(N2Cc3cc(Cl)ccc3OC3=C2C(=O)N(Cc2ccc(F)cc2)C3=O)cc1`, for which the GI50 was 0.186 µM in assay [1]; 1.83 µM in assay [2]; 0.559 µM in assay [3]; 0.811 µM in [4]; 0.494 µM in assay [5]; 0.206 µM in [6]. Moreover, the GI50 in assay [7] is 0.658 µM; in assay [8] it was 0.557 µM; in [9], 0.567 µM; in assay [10], 0.537 µM. Besides, the TGI in [1] was determined as 0.38 µM; in [2] it was 6.59 µM; in assay [3], 1.13 µM; in assay [4] it was 2.7 µM; in assay [5], 0.96 µM; in assay [6], 0.563 µM. In addition, the TGI came to 1.66 µM in assay [7], 1.07 µM in [8], 1.1 µM in [9] and 1.13 µM in assay [10].
Consider `CCOc1ccc(/C=N\N2C(=O)c3ccccc3C2=O)cc1`, for which the TGI in assay [1], in assay [2], in [3], in [4], in assay [5] and in assay [6] was greater than 100 µM throughout. The TGI in assay [7], in [8], in assay [9] and in assay [10] was greater than 100 µM in each case.
For the compound `Cc1cc2oc(=O)c(Cl)c(Cl)c2c(C)c1Cl`, the TGI in assay [1] stood at 15.7 µM; in [2], 29.4 µM; in [3], 23.7 µM; in assay [4], 39.7 µM; in assay [5], 7.1 µM; in assay [6] it was 15.6 µM. For the same compound, the TGI in [7] came to 11.5 µM; in [8] it was 21.4 µM; in [9], 28.3 µM; in [10], 20.2 µM.
With `Cc1ccc(-n2nnc3c(sc4ccccc43)c2=O)cc1`, the GI50 in assay [1] is 3.8 µM; in [2] it was 3.81 µM; in [3], 8.4 µM; in [4], 42.8 µM; in assay [5], 17 µM; in [6] it was 2.02 µM. For the same compound, the GI50 in [7] is 4.62 µM; in [8] it was 5.23 µM; in assay [9] it was 7.47 µM; in assay [10], 51.7 µM. The TGI in [1] was greater than 100 µM; in [2] it was greater than 100 µM; in assay [3], greater than 100 µM; in assay [4] it was greater than 100 µM; in [5] it was greater than 100 µM; in [6], 4.82 µM. The TGI was 71 µM in [7], 30.6 µM in assay [8], 50 µM in assay [9] and greater than 100 µM in assay [10].
In the case of `O=C(N/N=C/c1ccncc1)c1ccc(C(F)(F)F)nc1Nc1cccc(C(F)(F)F)c1`, the GI50 in assay [1] was 1.48 µM; in [2] it was 3.23 µM; in [3], 2 µM; in assay [4], 4.34 µM; in [5], 2.65 µM; in assay [6], 0.808 µM. Also, the GI50 in assay [7] was 2.55 µM; in [8], 2.6 µM; in assay [9], 2.52 µM; in assay [10], 2.57 µM. Besides, the TGI in assay [1] was 4.97 µM; in [2] it was 12.4 µM; in assay [3] it was 6.99 µM; in assay [4], 16.2 µM; in assay [5], 7.74 µM; in [6], 7.99 µM. Moreover, the TGI in assay [7] came to 7.36 µM; in assay [8], 9.5 µM; in [9], 11.6 µM; in [10], 8.54 µM.
With `O=C(NC1CCNCC1)c1[nH]ncc1NC(=O)c1c(Cl)cccc1Cl`, the GI50 in assay [1] was 14.9 µM and 4.09 µM; in [2], 0.297 µM and 0.305 µM; in [3], 0.325 µM and 0.257 µM; in assay [4], 1.03 µM and 0.393 µM; in assay [5] it was 0.325 µM and 0.386 µM; in [6] it was 0.402 µM and 0.383 µM. Besides, the GI50 in [7] is 0.343 µM and 0.352 µM; in assay [8], 0.271 µM and 0.257 µM; in [9], 1.49 µM and 1.44 µM; in [10] it was 1.33 µM and 0.479 µM. The TGI in assay [1] was greater than 100 µM; in assay [2] it was 1.66 µM and > 10 µM; in assay [3], 1.68 µM and 1.03 µM; in assay [4], 9.87 µM and 3.23 µM; in assay [5], greater than 27.9 µM; in [6], 14 µM and > 10 µM. Also, the TGI in assay [7] was 3.82 µM and > 7.39 µM; in [8], 0.7 µM and 0.666 µM; in assay [9], 6.93 µM and > 10 µM; in assay [10] it was 3.18 µM and 1.89 µM.
Consider `COc1ccc(C2=NNC(c3cc(Cc4ccc(O)c(C5CC(c6ccc(OC)cc6)=NN5)c4)ccc3O)C2)cc1` (stereo not given), for which the GI50 in assay [1] is 30.2 µM; in [2] it was 22.6 µM; in [3], 48.9 µM; in assay [4], 5.3 µM; in assay [5], 18.8 µM; in [6], 5.36 µM. Besides, the GI50 in assay [7] is 17.9 µM; in [8], 22.4 µM; in assay [9], 19.6 µM; in assay [10], 10.6 µM. Also, the TGI in [1], in [2], in assay [3], in assay [4], in [5] and in assay [6] was greater than 100 µM throughout. Further, the TGI in [7] was greater than 100 µM; in assay [8], greater than 100 µM; in assay [9], greater than 100 µM; in [10] it was 99.6 µM.
